In patent US20250122171A1, “Substituted Amine Compounds, Compositions and Methods of Use” (Deep Apple Therapeutics, Inc., priority 2023, published 2025):

Target: T1, human MRGPRX2 (Homo sapiens, UniProt Q96LB1)
T1 construct: expressed in transfected cells; host or cells: FlpIn TRex HEK293 (TRex-MRGPRX2-HEK), doxycycline-induced
T1 sequence (Q96LB1 1-330): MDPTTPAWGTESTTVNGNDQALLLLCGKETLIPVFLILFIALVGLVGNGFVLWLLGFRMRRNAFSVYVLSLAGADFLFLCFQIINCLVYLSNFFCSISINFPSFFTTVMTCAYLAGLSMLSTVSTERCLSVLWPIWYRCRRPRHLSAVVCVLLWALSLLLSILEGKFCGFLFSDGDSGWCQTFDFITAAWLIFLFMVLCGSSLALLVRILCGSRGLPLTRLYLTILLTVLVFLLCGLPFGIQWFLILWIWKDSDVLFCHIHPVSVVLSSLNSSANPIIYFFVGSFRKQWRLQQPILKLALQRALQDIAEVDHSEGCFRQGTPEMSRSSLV
Test: MRGPRX2 Activity Assay (IP-1 HTRF, antagonist mode)
Type: cell-based
Settings: FlpIn TRex-MRGPRX2-HEK293 cells; versus 1 μM Cortistatin-14 agonist; 30 minutes preincubation
Description: FlpIn TRex-MRGPRX2-HEK293 cells (herein TRex-MRPGRX2-HEK) stably transfected to express human MRGPRX2 were maintained at 37° C. with 5% CO2 and grown in DMEM supplemented with 10% FBS, 1% L-Glutamate, 1% penicillin/streptomycin, 100 ug/mL Hygromycin B, and 15 ug/mL Blasticidin.
GOI (MRGPRX2) expression was induced with 100 ng/mL of Doxycycline 18-24 hours prior to experiment, in flask. On the day of experiment, cells were lifted with TripLE Express and seeded in 384-well white walled opaque bottomed, assay plates, at 8,000 cells per well in 5 uL freshly made assay buffer (HBSS, 20 mM HEPES, 0.1% BSA and 10 mM LiCl). Compounds solubilized in 100% DMSO at 30 mM were serially diluted (1:4) first in 100% DMSO, and an intermediate plate of assay buffer was used to establish a final top concentration of 30 uM (in assay plate). Final DMSO concentration was kept constant at 1% across assay plates. […], at 30 mM stock concentration was solubilized in HBSS+0.1% BSA, stored at −20° C. in 5 μL aliquots and discarded after one freeze-thaw cycle. […].
Antagonist equilibrium was established with 30 minutes preincubation, followed by no wash, direct addition, and stimulation of agonist for 1 hour at 37° C./5% CO2. IP-1 standards and HTRF detection reagents were added according to the IP-one Gq kit protocol purchased from CisBio (part number 62IPAPEJ). The plate was read on an EnVision XCite plate reader. The HTRF ratio was then calculated from raw data (channel1/channel2×10,000) and analyzed using either GraphPad Prism or a custom Python script to calculate IC50 using Log[Antagonist] vs. response (4 parameter) nonlinear regression.

Compound	IC50
C[C@@H](C(=O)Nc1cn(Cc2cccc(F)c2F)cn1)N1CCC(F)(F)[C@@H](c2cc[n+]([O-])cc2)C1 [Compound 49, 4-((S)-1-((S)-1-((1-(2,3-difluorobenzyl)-1H-imidazol-4-yl)amino)-1-oxopropan-2-yl)-4,4-difluoropiperidin-3-yl)pyridine 1-oxide]	53 nM
C[C@@H](C(=O)Nc1cn2c(n1)CC[C@H]2c1cc(F)cc(F)c1)N1CCC(F)(F)[C@H](c2ccc(=O)[nH]c2)C1 (single isomer, unassigned) [Compound 496]	3470 nM
C[C@@H](C(=O)Nc1cn2c(n1)CC[C@@H]2c1cc(F)cc(F)c1)N1CCC(F)(F)[C@@H](c2cc[n+]([O-])c(CN3CCC(F)(F)CC3)c2)C1 (single isomer, unassigned) [Compound 534]	> 30000 nM
C[C@@H](C(=O)Nc1cc2n(n1)CC[C@H]2c1cc(F)cc(F)c1)N1CCC(F)(F)[C@@H](c2cc[n+]([O-])cc2)C1 (single isomer, unassigned) [Compound 550]	6 nM
C[C@@H](C(=O)Nc1cn2c(n1)CC[C@@H]2c1cc(F)cc(F)c1)N1CCC(F)(F)[C@H](c2c[nH]c(=O)c(CO)c2)C1 (single isomer, unassigned) [Compound 524]	50 nM
C[C@@H](C(=O)Nc1cn(Cc2ccc(F)cc2Cl)cn1)N1CCC(F)(F)[C@@H](c2cc[n+]([O-])cc2)C1 [Compound 48, 4-((S)-1-((S)-1-((1-(2-chloro-4-fluorobenzyl)-1H-imidazol-4-yl)amino)-1-oxopropan-2-yl)-4,4-difluoropiperidin-3-yl)pyridine 1-oxide]	214 nM
C[C@@H](C(=O)Nc1cn2c(n1)[C@@H](O)C[C@@H]2c1cc(F)cc(F)c1)N1CCC(F)(F)[C@@H](c2ccc(=O)[nH]c2)C1 (single isomer, unassigned) [Compound 516]	> 30000 nM
C[C@H](C(=O)Nc1cn2c(n1)CC[C@@H]2c1cc(F)cc(F)c1)N1CCC(F)(F)[C@@H](c2cc[n+]([O-])cc2)C1 (single isomer, unassigned) [Compound 488]	8810 nM
Cc1nc(NC(=O)[C@@H](C)N2CCC(F)(F)[C@@H](c3cc[n+]([O-])cc3)C2)cn1Cc1cc(F)cc(F)c1 (single isomer, unassigned) [Compound 20]	193 nM
C[C@@H](C(=O)Nc1cn(Cc2ccccc2F)cn1)N1CCC(F)(F)[C@@H](c2cc[n+]([O-])cc2)C1 [Compound 37, 4-((S)-4,4-difluoro-1-((S)-1-((1-(2-fluorobenzyl)-1H-imidazol-4-yl)amino)-1-oxopropan-2-yl)piperidin-3-yl)pyridine 1-oxide]	54 nM
C[C@@H](C(=O)Nc1cn(Cc2cc(F)cc(F)c2)cn1)N1CCC(F)(F)[C@@H](c2ccc(=O)[nH]c2)C1 (single isomer, unassigned) [Compound 54]	432 nM
C[C@@H](C(=O)Nc1cn(Cc2cc(F)cc(F)c2)cn1)N1CCC(F)(F)[C@H](c2ccc(=O)n(C)c2)C1 (single isomer, unassigned) [Compound 69]	> 30000 nM
Cc1nc(NC(=O)[C@H](C)N2CCOCC2)cn1Cc1cc(F)cc(F)c1 (single isomer, unassigned) [Compound 23]	700 nM
Cc1nc(NC(=O)[C@@H](C)N2CCC(F)(F)CC2)cn1Cc1cc(F)cc(F)c1 (single isomer, unassigned) [Compound 22]	124 nM
C[C@H](C(=O)Nc1noc(Cc2cc(F)cc(F)c2)n1)N1CCC(F)(F)[C@@H](c2cc[n+]([O-])cc2)C1 (single isomer, unassigned) [Compound 57]	> 10000 nM
C[C@@H](C(=O)Nc1cn(Cc2cc(F)cc(F)c2)c(C(F)F)n1)N1CCC(F)(F)[C@@H](c2cc[n+]([O-])cc2)C1 (single isomer, unassigned) [Compound 82]	1170 nM
C[C@@H](C(=O)Nc1cn2c(n1)CC[C@@H]2c1cc(F)cc(F)c1)N1CCCCC1 (single isomer, unassigned) [Compound 497]	> 30000 nM
C[C@@H](C(=O)Nc1cn(Cc2ccc(F)c(F)c2F)cn1)N1CCC(F)(F)[C@@H](c2cc[n+]([O-])cc2)C1 [Compound 42, 4-((S)-4,4-difluoro-1-((S)-1-oxo-1-((1-(2,3,4-trifluorobenzyl)-1H-imidazol-4-yl)amino)propan-2-yl)piperidin-3-yl)pyridine 1-oxide]	169 nM

Compound	IC50
C[C@@H](C(=O)Nc1cn2c(n1)[C@@H](O)C[C@H]2c1cc(F)cc(F)c1)N1CCC(F)(F)[C@@H](c2ccc(=O)[nH]c2)C1 (single isomer, unassigned) [Compound 517]	> 30000 nM
C[C@@H](C(=O)Nc1cn2c(n1)CC[C@@H]2c1cc(F)cc(F)c1)N1CCC(F)(F)[C@H](c2cc[n+]([O-])c(CN3CCC(F)(F)CC3)c2)C1 (single isomer, unassigned) [Compound 535]	31 nM
C[C@H](C(=O)Nc1cn([C@H](C)c2cc(F)cc(F)c2)cn1)N1CCC(F)(F)[C@@H](c2cc[n+]([O-])cc2)C1 (single isomer, unassigned) [Compound 16]	> 10000 nM
C[C@H](C(=O)Nc1cn(Cc2ccc(F)cc2F)cn1)N1CCC(F)(F)[C@H](c2cc[n+]([O-])cc2)C1 (single isomer, unassigned) [Compound 4]	> 10000 nM
C[C@@H](C(=O)Nc1cn2c(n1)CC[C@@H]2c1cc(F)cc(F)c1)N1CCC(F)(F)[C@H](c2ccc(=O)n(C)c2)C1 (single isomer, unassigned) [Compound 533]	18 nM
C[C@@H](C(=O)Nc1cn(Cc2ccc(Cl)c(F)c2)cn1)N1CCC(F)(F)[C@@H](c2cc[n+]([O-])cc2)C1 [Compound 47, 4-((S)-1-((S)-1-((1-(4-chloro-3-fluorobenzyl)-1H-imidazol-4-yl)amino)-1-oxopropan-2-yl)-4,4-difluoropiperidin-3-yl)pyridine 1-oxide]	775 nM
C[C@@H](C(=O)Nc1cn2c(n1)CC[C@@H]2c1cc(F)cc(F)c1)N1CCOCC1 (single isomer, unassigned) [Compound 511]	> 30000 nM
C[C@@H](C(=O)Nc1cn2c(n1)CC[C@@H]2c1cc(F)cc(F)c1)N1CCC(F)(F)[C@H](c2cc[n+]([O-])c(CO)c2)C1 (single isomer, unassigned) [Compound 526]	9.8 nM
C[C@H](C(=O)Nc1cn(Cc2cc(F)cc(F)c2)c(CF)n1)N1CCC(F)(F)[C@@H](c2cc[n+]([O-])cc2)C1 (single isomer, unassigned) [Compound 61]	477 nM
Cc1nc(NC(=O)[C@@H](C)N2CCC(F)(F)[C@@H](c3cc[n+]([O-])cc3)C2)cn1Cc1ccc(F)cc1F (single isomer, unassigned) [Compound 10]	1610 nM
C[C@@H](C(=O)Nc1nc2ccccc2s1)N1CCC(F)(F)[C@@H](c2cc[n+]([O-])cc2)C1 (single isomer, unassigned) [Compound 84]	12700 nM
(S)-2-((S)-4,4-difluoro-3-(6-oxo-1,6-dihydropyridin-3-yl)piperidin-1-yl)-N-(1-(3,5-difluorobenzyl)-1H-imidazol-4-yl)propanamide [Compound 76]	2220 nM
C[C@@H](C(=O)Nc1nc(Cc2cc(F)cc(F)c2)no1)N1CCC(F)(F)[C@@H](c2cc[n+]([O-])cc2)C1 (single isomer, unassigned) [Compound 58]	> 10000 nM
(R)-2-((S)-4,4-difluoro-3-(6-oxo-1,6-dihydropyridin-3-yl)piperidin-1-yl)-N-(1-(3,5-difluorobenzyl)-1H-imidazol-4-yl)propanamide [Compound 79]	18100 nM
Cc1nc(NC(=O)[C@@H](C)N2CCOCC2)cn1Cc1cc(F)cc(F)c1 (single isomer, unassigned) [Compound 24]	3910 nM
C[C@@H](C(=O)Nc1cn2c(n1)CC[C@@H]2c1cc(F)cc(F)c1)N1CCC(F)(F)[C@@H](c2c[nH]c(=O)cn2)C1 (single isomer, unassigned) [Compound 527]	102 nM
Cc1nc(NC(=O)[C@@H](C)N2CCC(F)(F)[C@@H](c3cc[n+]([O-])cc3)C2)cn1Cc1cc(F)cc(C#N)c1 (single isomer, unassigned) [Compound 18]	> 10000 nM
C[C@@H](C(=O)Nc1cn(Cc2cccc(Cl)c2Cl)cn1)N1CCC(F)(F)[C@@H](c2cc[n+]([O-])cc2)C1 [Compound 66, 4-((S)-1-((S)-1-((1-(2,3-dichlorobenzyl)-1H-imidazol-4-yl)amino)-1-oxopropan-2-yl)-4,4-difluoropiperidin-3-yl)pyridine 1-oxide]	71 nM
